Going from `CCC1(c2ccccc2)C(=O)N=C(OC(C)C)NC1=O` (centres undefined) to `CC1(C)C(C=C2CCSC2=O)C1C(=O)OCc1ccccc1` (centres undefined), the logP rises from 1.79 to 4.02.

First: c1ccc(-c2cc3ccccc3cn2)nc1
Second: c1ccc2c(c1)Cc1c-2ccc2ccccc12
The logP of the first is lower: 3.05 for the first, 5.4 for the second.

Going from `O=C(O)C=COc1ccccc1Cl` to `O=C(O)C=COc1ccccc1`, the logP falls from 2.69 to 2.27.

First: Nc1ccc(O)c2ncccc12
Second: Oc1ccc(O)c2ccccc12
The logP of the first is lower: -0.11 for the first, 1.9 for the second.

Compared with `COC1CC(OC2CCC3(C=O)C4CCC5(C)C(C6=CC(=O)OC6)CCC5(O)C4CCC3(O)C2)OC(C)C1O` (centres undefined), `C[C@@H]1CC2=CC(=O)CC[C@@H]2[C@H]2CC[C@@]3(C)[C@@H](CC[C@]3(C)O)[C@@H]21` is higher in logP: 0.64 for the first, 3.19 for the second.

Compared with `CCCCCc1cc(O)c2c(c1)OC(C)(C)[C@@H]1CCC(CO)=C[C@@H]21`, `CCCCCc1cc(O)c2c(c1)OC(C)(C)C1CC=C(C)CC21` (centres undefined) is higher in logP: 5.33 for the first, 7.41 for the second.

Compared with `CCNC(=O)NS(=O)(=O)c1ccc(C)cc1`, `Cc1ccc(S(=O)(=O)NC(=O)NN2CCCCC2)cc1` is higher in logP: 1.14 for the first, 1.34 for the second.

First: CCC1OC(=O)C(C)C(OC2CC(C)(OC)C(OC=O)C(C)O2)C(C)C(OC2OC(C)CC(N(C)C)C2O)C(C)(O)CC(C)C(=O)C(C)C(O)C1C (centres undefined)
Second: C=C1C(=O)O[C@H]2[C@H]1[C@H](OC(=O)/C(C)=C\C)CC(=C)[C@@H]1[C@H](O)[C@H]3O[C@@]3(C)[C@@]12O
The logP of the first is higher: 3.05 for the first, 1.69 for the second.

First: OC(CNCCc1ccncc1)COc1ccc(-c2ncc(-c3cccs3)[nH]2)cc1 (centres undefined)
Second: O=C(COc1ccc(OCCNCC(O)COc2ccccc2)cc1)NCCCO (centres undefined)
The logP of the first is higher: 2.25 for the first, 0.5 for the second.

Going from `Cc1cc(=O)n2c(n1)CCCC2C` (centres undefined) to `CCCCCCC(C)(C)c1ccc(C2CC(O)CCC2C)c(O)c1` (centres undefined), the logP rises from 0.67 to 7.49.

`COC1CC2(C)C(O)C(F)CC2C2CCc3cc(O)ccc3C12` (centres undefined) and `O=C(O)C1CCc2cc(Cl)ccc2O1` (centres undefined) are within 0.2 log units of each other in logP: 2.35 for the first, 2.4 for the second.

Compared with `CCC(CC)(C(=O)NC(N)=O)C(=O)OCc1ccccc1`, `CCOC(=O)C(CC)(CC)C(=O)NC(N)=O` is lower in logP: 2.74 for the first, 1.45 for the second.

First: CCCCc1ccc(O)cc1
Second: Oc1ccc2cc(O)ccc2c1
The logP of the first is higher: 3.65 for the first, 1.9 for the second.

`COc1cc(Cc2cnc(N)nc2N)c(I)c(OC)c1OC` and `COc1ccc(Cc2cnc(N)nc2N)cc1N(C)C` are within 0.2 log units of each other in logP: 1.79 for the first, 1.68 for the second.

Compared with `C=C1CCC2C(C1)c1c(OCc3ccc(-c4ccccc4)cc3)cc(CCCCC)cc1OC2(C)C` (centres undefined), `COc1ccc(COc2ccccc2C(N)=O)cc1` is lower in logP: 11.3 for the first, 1.63 for the second.

`O=C1CC(c2ccccc2)c2ccccc2N1` (centres undefined) and `O=C1Nc2ccccc2CC1c1ccccc1` (centres undefined) are within 0.2 log units of each other in logP: 2.79 for the first, 2.93 for the second.

First: Nc1nc(N)c2nc(-c3ccc(O)cc3)c(N)nc2n1
Second: CCCOc1ccc(Cc2cnc(N)nc2N)cc1OC
The logP of the first is lower: 0.92 for the first, 2.02 for the second.

Going from `O=C(c1ccc2n1CCC2C(=O)O)C1CCC1` (centres undefined) to `CC(C)Oc1ccc(C(=O)c2ccc3n2CCC3C(=O)O)cc1` (centres undefined), the logP rises from 2.41 to 3.38.

Going from `CCCCCCCC1CC(C(=O)Nc2c(C(C)C)cccc2C(C)C)C(=O)O1` (centres undefined) to `CC(C)c1cccc(C(C)C)c1NC1=NCCN1`, the logP falls from 4.72 to 3.04.

Going from `Cc1cnc([N+](=O)[O-])n1CCO` to `CS(=O)CCn1ccnc1[N+](=O)[O-]` (centres undefined), the logP falls from 0.18 to -1.22.

Going from `CCN(CC)CCCN(C(=O)Cc1ccccc1)c1c(C)cccc1C` to `CCN(CC)CCCCCCC(=O)Nc1c(C)cccc1C`, the logP falls from 4.94 to 3.48.

Compared with `O=C(O)c1ccc(Cl)cc1Nc1ccc(Cl)cc1`, `O=C(O)c1ccc(Cl)cc1Nc1ccc(I)cc1` is higher in logP: 4.97 for the first, 5.37 for the second.

First: CCC(O)(C(N)=O)c1ccccc1 (centres undefined)
Second: CCNCc1ccccc1
The logP of the first is lower: 1.2 for the first, 1.82 for the second.

Going from `CC/C=C\C/C=C\C/C=C\CCCCCCCC(=O)O` to `CCCOC(=O)CNC(=O)CCCCSc1ncnc2nc[nH]c12`, the logP falls from 6.46 to 1.37.

Going from `CCCCCCCOC1OC(CO)C(O)C(O)C1O` (centres undefined) to `CCCCCCC(C)(C)c1ccc(C2CC(O)CCC2CCCO)c(O)c1` (centres undefined), the logP rises from 0.73 to 6.13.

First: Cc1cc(Br)cc(C(N)=O)c1O
Second: NC(=O)c1cc(Cl)ccc1NCCO
The logP of the first is higher: 2.76 for the first, 1.26 for the second.

First: O=[N+]([O-])c1cc(F)cc(F)c1
Second: O=C(O)c1cc(-c2ccc(F)cc2F)ccc1O
The logP of the first is lower: 2.03 for the first, 4.44 for the second.

Going from `CCN1CC(C(O)C(CC2CCCCC2)NC(=O)C(Cc2cc[nH]n2)NC(=O)C(CC(=O)N2CCOCC2)Cc2ccccc2)OC1=O` (centres undefined) to `CCN1CC(C(O)C(CC2CCCCC2)NC(=O)C(Cc2cnc[nH]2)NC(=O)C(Cc2ccc(OC)cc2)NC(=O)N2CCOCC2)OC1=O` (centres undefined), the logP falls from 2.49 to 2.11.

Compared with `CCCOC(=O)c1ccccc1Cl`, `O=C(O)Cc1cccc2ccccc12` is lower in logP: 3.45 for the first, 2.24 for the second.

Going from `COC(=O)CCC(C)=O` to `COC(=O)N(C)SN(C)C(=O)ON=C(C)SC`, the logP rises from -0.13 to 1.4.

Going from `Clc1cccc(-c2cccc(Cl)c2)c1` to `CC(=O)OCCN1C(=O)C(OC(C)=O)N=C(c2ccccc2)c2cc(Cl)ccc21` (centres undefined), the logP falls from 5.27 to 2.74.

Going from `COCOC(=O)C1N2C(=O)C(N3C(=O)C(c4ccc(O)cc4)NC3(C)C)C2SC1(C)C` (centres undefined) to `CC1CC2C3CC(F)C4=CC(=O)C(Cl)=CC4(C)C3(Cl)C(O)CC2(C)C1(O)C(=O)COC(=O)C(C)(C)C` (centres undefined), the logP rises from 0.3 to 4.73.

Going from `CC1CCC(c2ccccc2)(N2CCCCC2)CC1` (centres undefined) to `OC(CCN1CCCCC1)(c1ccccc1)C1CC2C=CC1C2` (centres undefined), the logP falls from 5.66 to 4.25.

Going from `CCN(CC)C(=O)c1cccc(C)c1` to `CCN(CC)C(C)CCCC(=O)Nc1c(C)cccc1C` (centres undefined), the logP rises from 2.18 to 2.64.

Compared with `CCN1CC(C(O)C(CC2CCCCC2)NC(=O)C(Cc2cnc[nH]2)NC(=O)C(Cc2ccc(OC)cc2)NC(=O)N(C)CCOCOCCOC)OC1=O` (centres undefined), `COc1ccc(C(=O)OCC2OC(n3cnc4c(OC)ncnc43)C2OC(=O)c2ccc(OC)cc2)cc1` (centres undefined) is higher in logP: 2.03 for the first, 3.65 for the second.

Compared with `Fc1cccc(N=C2NCCN2)c1Cl`, `O=C(O)c1ccc(O)c(Cl)c1` is higher in logP: 1.52 for the first, 2.41 for the second.

Going from `Oc1ccc2[nH]ccc2c1` to `c1ccc(-c2cn[nH]n2)cc1`, the logP rises from 1.11 to 1.91.

Going from `COc1c(OC)c(OC(C)=O)c2cc(NC(C)=O)ccc2c1OC(C)=O` to `CCC(=O)Oc1c(OC)c(OC)c(OC(=O)CC)c2ccccc12`, the logP rises from 2 to 3.44.

`CC(C)C(=O)O` and `CCCCC(O)C(=O)O` (centres undefined) are within 0.2 log units of each other in logP: 0.94 for the first, 0.81 for the second.

Compared with `CC(C)C(=O)OCC1OC(n2cc(I)c(=O)[nH]c2=O)C1O` (centres undefined), `Cc1cccc(C)c1NC(=O)CCC(C)N` (centres undefined) is higher in logP: 0.83 for the first, 1.08 for the second.

First: O=[N+]([O-])c1cnc(C=Cc2ccc3c(c2)OCO3)n1CCO
Second: Cn1c([N+](=O)[O-])cnc1/C=C/c1ccnc(N)n1
The logP of the first is higher: 2.03 for the first, 0.85 for the second.

Going from `COc1ccc(N2Cn3c(nc4ccccc4c3=O)C2C)cc1` (centres undefined) to `CC(C)NC(=O)COc1ccc(OCCNCC(O)COc2ccccc2)cc1` (centres undefined), the logP rises from 1.73 to 2.4.

Compared with `CC1CCC2C(C)C(OC(=O)Oc3ccccc3)OC3OC4(C)CCC1C32OO4` (centres undefined), `COC(=O)/C=C/Oc1ccccc1` is lower in logP: 4.41 for the first, 2.68 for the second.

First: C#CCC(O)(CC#C)c1cccnc1
Second: COC(C)(OC)c1ccc(C(O)(Cn2ccnc2)c2ccc(-c3ccncc3)cc2)cc1 (centres undefined)
The logP of the first is lower: 1.29 for the first, 3.45 for the second.

Compared with `CN(C)c1nc(N(C)C)nc(N(C)CCO)n1`, `CCNc1nc(Cl)nc(NC2CC2)n1` is higher in logP: 1.96 for the first, 2.17 for the second.

First: CSC(C)=NOC(=O)N(C)SN(C)C(C)=O
Second: CC(=O)Oc1cccc(OC(C)=O)c1C(N)=O
The logP of the first is higher: 1.3 for the first, -0.62 for the second.

First: CC(CC(=O)O)CC(=O)c1ccc(-c2ccccc2)cc1 (centres undefined)
Second: CCOC(=O)c1ccc(S(N)(=O)=O)cc1
The logP of the first is higher: 3.82 for the first, 1.17 for the second.

— the OPERA property sets (Mansouri et al. 2018)
